# Reference: patent US6706663B2, “Herbicidal 3-heterocyclic substituted benzisothiazole and benzisoxazole compounds” (Wyeth, priority 2000, dated 2004)
# What was measured:
# [1] = tested on: ABUTH (Abutilon theophrasti); test: Postemergence herbicidal evaluation; assay type: in vivo, Medic.; conditions: postemergence
# How it was run: (§1)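 Seedlings grown about two weeks in flats, sprayed, then kept under standard greenhouse care. Rated visually 4–5 weeks after treatment on a 0–9 scale (stand, vigour, malformation, size, chlorosis, overall appearance) relative to untreated control; repeat tests averaged.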
# [2] = tested on: AMBEL (Ambrosia artemisifolia); test: Postemergence herbicidal evaluation; assay type: in vivo, L.; conditions: postemergence
# How it was run: as §1
# [3] = tested on: CASOB (Cassia obtusifolia); test: Postemergence herbicidal evaluation; assay type: in vivo, L.; conditions: postemergence
# How it was run: as §1
# [4] = tested on: CHEAL (Chenopodium album); test: Postemergence herbicidal evaluation; assay type: in vivo, L.; conditions: postemergence
# How it was run: as §1
# GALAP (Galium aparine) [5] = test: Postemergence herbicidal evaluation; assay type: in vivo; conditions: postemergence
# How it was run: as §1
# [6] = tested on: IPOHE (Ipomoea hederacea); test: Postemergence herbicidal evaluation; assay type: in vivo, (L.) Jacq.; conditions: postemergence
# How it was run: as §1
# [7] = tested on: ECHCG (Echinochloa crus-galli); test: Postemergence herbicidal evaluation; assay type: in vivo, (L.) Beau; conditions: postemergence
# How it was run: as §1
# [8] = tested on: GLXMAW (Soybean, Williams); test: Postemergence herbicidal evaluation; assay type: in vivo, Glycine max, (L.) Merr. cv Williams; conditions: postemergence
# How it was run: as §1
# ORYSAT (Rice, Tebonnet) [9] = test: Postemergence herbicidal evaluation; assay type: in vivo, Oryza sativa, (L.) Tebonnet; conditions: postemergence
# How it was run: as §1
# [10] = tested on: TRZAWR (Wheat, Winter, cv Riband); test: Postemergence herbicidal evaluation; assay type: in vivo, Triticum aestivum; conditions: postemergence
# How it was run: as §1
# ZEAMX (Corn, Field) [11] = test: Postemergence herbicidal evaluation; assay type: in vivo, Zea mays, L.; conditions: postemergence
# How it was run: as §1
# [12] = tested on: ABUTH (Abutilon theophrasti); test: Preemergence herbicidal evaluation; assay type: in vivo, Medic.; conditions: preemergence, rated 4-5 weeks after treatment
# [13] = tested on: AMBEL (Ambrosia artemisifolia); test: Preemergence herbicidal evaluation; assay type: in vivo, L.; conditions: preemergence, rated 4-5 weeks after treatment
# How it was run: (§2)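 Applied before emergence as an aqueous acetone spray over seeded soil. Read-out: 0–9 visual rating covering plant stand, vigor, size, chlorosis, malformation and overall appearance compared with control, taken 4–5 weeks after spraying.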
# GALAP (Galium aparine) [14] = test: Preemergence herbicidal evaluation; assay type: in vivo; conditions: preemergence, rated 4-5 weeks after treatment
# How it was run: as §2
# [15] = tested on: IPOHE (Ipomoea hederacea); test: Preemergence herbicidal evaluation; assay type: in vivo, (L.) Jacq.; conditions: preemergence, rated 4-5 weeks after treatment
# [16] = tested on: ECHCG (Echinochloa crus-galli); test: Preemergence herbicidal evaluation; assay type: in vivo, (L.) Beau; conditions: preemergence, rated 4-5 weeks after treatment
# How it was run: as §2
# GLXMA (Soybean) = test: Preemergence herbicidal evaluation; assay type: in vivo, Glycine max, (L.) Merr.; conditions: preemergence, rated 4-5 weeks after treatment
# ZEAMX (Corn, Field) [17] = test: Preemergence herbicidal evaluation; assay type: in vivo, Zea mays, L.; conditions: preemergence, rated 4-5 weeks after treatment
# [18] = tested on: ECHORC (Echinochloa oryzoides); test: Flooded paddy, preemergence weed control; assay type: in vivo, Echinochloa oryzoides (Ard.) Fritsch.; conditions: rated 3-4 weeks after treatment, 0-9 rating scale
# How it was run: (§3)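 Under paddy conditions, seeds or vegetative propagules go into the top 0.5 cm of silt loam; the soil is then flooded to 1.5–3 cm and kept so. Treated pots stay in a greenhouse; response is rated 0-9 visually versus control.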
# CYPIR (Cyperus iria) = test: Flooded paddy, preemergence weed control; assay type: in vivo; conditions: rated 3-4 weeks after treatment, 0-9 rating scale
# How it was run: as §3
# [19] = tested on: MOOVA (Monochoria vaginalis); test: Flooded paddy, preemergence weed control; assay type: in vivo, Presl.; conditions: rated 3-4 weeks after treatment, 0-9 rating scale
# How it was run: as §3
# [20] = tested on: SAGPY (Sagittaria pygmaea); test: Flooded paddy, preemergence weed control; assay type: in vivo, L.; conditions: rated 3-4 weeks after treatment, 0-9 rating scale
# How it was run: as §3
# ORYSAT (Rice, Tebonnet) [21] = test: Flooded paddy, post-transplant rice tolerance; assay type: in vivo, Oryza sativa, (L.) Tebonnet; conditions: in vivo
# How it was run: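 Seedlings aged ten days are transplanted in pairs into undrained pots of silt loam, which are then flooded to a depth of 1.5 to 3 cm. After herbicide application the pots are kept in a greenhouse with the flood maintained. Plants are rated 0-9 by visual comparison with controls.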
substance,measurement,setting,value
"5-[5-[3,6-dihydro-3-methyl-2,6-dioxo-4-(trifluoromethyl)-1(2H)-pyrimidinyl]-1,2-benzisothiazol-3-yl]-1,6-hydro-6-oxo-2,3-pyrazinedicarbonitrile [Compound 91]",ABUTH herbicidal rating,[1]; rate 0.0320 kg/ha,5.0
same,ABUTH herbicidal rating,[1]; rate 0.0620 kg/ha,7.0
same,ABUTH herbicidal rating,[1]; rate 0.1250 kg/ha,9.0
same,AMBEL herbicidal rating,[2]; rate 0.0320 kg/ha,4.0
same,AMBEL herbicidal rating,[2]; rate 0.0620 kg/ha,4.0
same,AMBEL herbicidal rating,[2]; rate 0.1250 kg/ha,5.0
same,CASOB herbicidal rating,[3]; rate 0.0320 kg/ha,0.0
same,CASOB herbicidal rating,[3]; rate 0.0620 kg/ha,3.0
same,CASOB herbicidal rating,[3]; rate 0.1250 kg/ha,4.0
same,CHEAL herbicidal rating,[4]; rate 0.0320 kg/ha,9.0
same,CHEAL herbicidal rating,[4]; rate 0.0620 kg/ha,9.0
same,CHEAL herbicidal rating,[4]; rate 0.1250 kg/ha,9.0
same,GALAP herbicidal rating,GALAP (Galium aparine) [5]; rate 0.0320 kg/ha,3.0
same,GALAP herbicidal rating,GALAP (Galium aparine) [5]; rate 0.0620 kg/ha,3.0
same,GALAP herbicidal rating,GALAP (Galium aparine) [5]; rate 0.1250 kg/ha,3.0
same,IPOHE herbicidal rating,[6]; rate 0.0320 kg/ha,7.0
same,IPOHE herbicidal rating,[6]; rate 0.0620 kg/ha,7.0
same,IPOHE herbicidal rating,[6]; rate 0.1250 kg/ha,8.0
same,ECHCG herbicidal rating,[7]; rate 0.0320 kg/ha,0.0
same,ECHCG herbicidal rating,[7]; rate 0.0620 kg/ha,0.0
same,ECHCG herbicidal rating,[7]; rate 0.1250 kg/ha,0.0
same,GLXMAW herbicidal rating,[8]; rate 0.0320 kg/ha,6.0
same,GLXMAW herbicidal rating,[8]; rate 0.0620 kg/ha,6.0
same,GLXMAW herbicidal rating,[8]; rate 0.1250 kg/ha,6.0
same,ORYSAT herbicidal rating,"ORYSAT (Rice, Tebonnet) [9]; rate 0.0320 kg/ha",0.0
same,ORYSAT herbicidal rating,"ORYSAT (Rice, Tebonnet) [9]; rate 0.0620 kg/ha",0.5
same,ORYSAT herbicidal rating,"ORYSAT (Rice, Tebonnet) [9]; rate 0.1250 kg/ha",1.0
same,TRZAWR herbicidal rating,[10]; rate 0.0320 kg/ha,0.0
same,TRZAWR herbicidal rating,[10]; rate 0.0620 kg/ha,0.0
same,TRZAWR herbicidal rating,[10]; rate 0.1250 kg/ha,0.0
same,ZEAMX herbicidal rating,"ZEAMX (Corn, Field) [11]; rate 0.0320 kg/ha",1.5
same,ZEAMX herbicidal rating,"ZEAMX (Corn, Field) [11]; rate 0.0620 kg/ha",2.5
same,ZEAMX herbicidal rating,"ZEAMX (Corn, Field) [11]; rate 0.1250 kg/ha",3.0
same,Preemergence herbicidal rating ABUTH,[12]; rate 0.0620 kg/ha,0.0
same,Preemergence herbicidal rating ABUTH,[12]; rate 0.1250 kg/ha,0.0
same,Preemergence herbicidal rating ABUTH,[12]; rate 0.2500 kg/ha,0.0
same,Preemergence herbicidal rating AMBEL,[13]; rate 0.0620 kg/ha,0.0
same,Preemergence herbicidal rating AMBEL,[13]; rate 0.1250 kg/ha,0.0
same,Preemergence herbicidal rating AMBEL,[13]; rate 0.2500 kg/ha,0.0
same,Preemergence herbicidal rating GALAP,GALAP (Galium aparine) [14]; rate 0.0620 kg/ha,0.0
same,Preemergence herbicidal rating GALAP,GALAP (Galium aparine) [14]; rate 0.1250 kg/ha,0.0
same,Preemergence herbicidal rating GALAP,GALAP (Galium aparine) [14]; rate 0.2500 kg/ha,0.0
same,Preemergence herbicidal rating IPOHE,[15]; rate 0.0620 kg/ha,0.0
same,Preemergence herbicidal rating IPOHE,[15]; rate 0.1250 kg/ha,0.0
same,Preemergence herbicidal rating IPOHE,[15]; rate 0.2500 kg/ha,0.0
same,Preemergence herbicidal rating ECHCG,[16]; rate 0.0620 kg/ha,0.0
same,Preemergence herbicidal rating ECHCG,[16]; rate 0.1250 kg/ha,0.0
same,Preemergence herbicidal rating ECHCG,[16]; rate 0.2500 kg/ha,0.0
same,Preemergence herbicidal rating GLXMA,GLXMA (Soybean); rate 0.0620 kg/ha,0.0
same,Preemergence herbicidal rating GLXMA,GLXMA (Soybean); rate 0.1250 kg/ha,0.0
same,Preemergence herbicidal rating GLXMA,GLXMA (Soybean); rate 0.2500 kg/ha,0.0
same,Preemergence herbicidal rating ZEAMX,"ZEAMX (Corn, Field) [17]; rate 0.0620 kg/ha",0.0
same,Preemergence herbicidal rating ZEAMX,"ZEAMX (Corn, Field) [17]; rate 0.1250 kg/ha",0.0
same,Preemergence herbicidal rating ZEAMX,"ZEAMX (Corn, Field) [17]; rate 0.2500 kg/ha",0.0
same,ECHORC herbicidal rating,[18]; rate 0.0320 kg/ha,0.0
same,ECHORC herbicidal rating,[18]; rate 0.1250 kg/ha,0.0
same,CYPIR herbicidal rating,CYPIR (Cyperus iria); rate 0.0320 kg/ha,0.0
same,CYPIR herbicidal rating,CYPIR (Cyperus iria); rate 0.1250 kg/ha,0.0
same,MOOVA herbicidal rating,[19]; rate 0.0320 kg/ha,0.0
same,MOOVA herbicidal rating,[19]; rate 0.1250 kg/ha,0.0
same,SAGPY herbicidal rating,[20]; rate 0.0320 kg/ha,0.0
same,SAGPY herbicidal rating,[20]; rate 0.1250 kg/ha,0.0
same,ORYSAT herbicidal rating (transplanted rice tolerance),"ORYSAT (Rice, Tebonnet) [21]",0.0
